A melting point compilation (Tetko et al.; mined from patent text by program, amines drawn as free bases though some values may be those of a salt)

Question: For `c1cn2nc(N3CCCC3)c3c(c2n1)CCCC3`, which melting point is on record?
Answer: 128 °C

Question: Which melting point does the source give for `Clc1cc(N2CCOCC2)nc(-n2cnc3ccccc32)n1` here?
Answer: 178 to 181 °C

Question: With `O=C(Nc1ccc2nc(-c3ccccc3)oc2n1)c1ccccc1` as the molecule, how does the melting point read?
Answer: 191 to 192 °C

Question: With `Nc1nnc(N2CCOCC2)s1` as the molecule, how does the melting point read?
Answer: 186 to 188 °C

Question: Which melting point does the source give for `CCOC(=O)C1=C(C)N2CCNC2=C(C(=O)OCC)C1c1cccs1` (centres undefined) here?
Answer: 134 °C

Question: For `CCOC(=O)Cn1c(=O)n(S(=O)(=O)c2ccc(Cl)cc2)c(=O)c2ccccc21`, which melting point is on record?
Answer: 208 to 209 °C

Question: With `c1ccc(-c2nn3ccccc3c2-c2ccnnc2)cc1` as the molecule, how does the melting point read?
Answer: 204 to 205 °C

Question: Which melting point does the source give for `CCCc1nn(C)c(C(N)=O)c1N` here?
Answer: 96 to 98 °C

Question: For `Cc1ncc([N+](=O)[O-])n1CCN(CCCCN(CCn1c([N+](=O)[O-])cnc1C)CCn1c([N+](=O)[O-])cnc1C)CCn1c([N+](=O)[O-])cnc1C`, which melting point is on record?
Answer: 194 to 196 °C

Question: Which melting point does the source give for `CCOC(=O)c1cn2c(cc(Cl)c3ccc(OC)cc32)n1` here?
Answer: 215 to 216 °C

Question: For `COc1ccnc(CSc2nc3cc4c(cc3[nH]2)OC(F)(F)O4)c1OC`, which melting point is on record?
Answer: 185 to 187 °C

Question: For `CCCNC(=O)N(C)Cc1cccc2c1C(=O)N(C1CCC(=O)NC1=O)C2=O` (centres undefined), which melting point is on record?
Answer: 210 to 212 °C

Question: For `COC(=O)CCCCCCCCOC1OC(CO)C(O)C(O)C1NC(C)=O` (centres undefined), which melting point is on record?
Answer: 178 to 180 °C

Question: For `CCCCCCCCCCCCCCCCCNC(=O)OCCOCCOC(=O)N(Cc1ccccn1)C(=O)OCC`, which melting point is on record?
Answer: 57 to 59 °C

Question: Which melting point does the source give for `Cn1nc(CO)cc1-c1ccccc1` here?
Answer: 95 to 99 °C

Question: With `Nc1cc(NC(=O)c2ccc(Cl)c(Cl)c2)ccc1F` as the molecule, how does the melting point read?
Answer: 151 to 153 °C

Question: Which melting point does the source give for `CN1C2CCC1CC(c1ccc3ccccc3c1)C2` (centres undefined) here?
Answer: 77 to 79 °C

Question: With `O=c1nc(-c2ccccn2)sc2ccc(OCCCc3ccccc3)cc12` as the molecule, how does the melting point read?
Answer: 170 °C

Question: With `COc1ccc(Cl)cc1-n1c(-c2cc(C(F)(F)F)cc(C(F)(F)F)c2)n[nH]c1=O` as the molecule, how does the melting point read?
Answer: 206 to 207 °C

Question: For `CC(C)(C)N(CC(=O)Nc1n[nH]c(=S)s1)C(=O)C(Cc1ccc(OCc2ccccc2)cc1)NC(=O)OCc1ccccc1` (centres undefined), which melting point is on record?
Answer: 146 °C

Question: Which melting point does the source give for `CN(C)C(=O)Oc1cccc2c1CN(Nc1ccncc1)C2` here?
Answer: 183 to 185 °C

Question: With `COc1cc(OC)c2c(=O)[nH]c(-c3ccc(OC)c(-c4ccc(C(=O)N(C)C)cc4C)n3)nc2c1` as the molecule, how does the melting point read?
Answer: 248 to 251 °C

Question: With `COC(=O)c1c([N+](=O)[O-])cccc1[N+](=O)[O-]` as the molecule, how does the melting point read?
Answer: 150 to 152 °C

Question: For `COc1ccc(-c2cc(C(=O)Nc3ccccc3)c(=O)n(CC3CC3)n2)cc1`, which melting point is on record?
Answer: 163 °C

Question: Which melting point does the source give for `COC(=O)N(C(C)C)C1C=C(C)CC=C1C(=O)c1ccc(F)cc1` (centres undefined) here?
Answer: 98 to 102 °C

Question: With `CCCCCS(=O)(=O)NC(=O)/C=C/c1ccc(OCCO[Si](c2ccccc2)(c2ccccc2)C(C)(C)C)cc1Oc1ncc(C(F)(F)F)cc1Cl` as the molecule, how does the melting point read?
Answer: 108 °C

Question: For `Fc1ccc(OCCCCN2CCC(NC3=Nc4ccccc4CS3)CC2)cc1`, which melting point is on record?
Answer: 133 °C

Question: For `COC(=O)c1sc(C(=O)OC)c(-c2ccoc2)c1O`, which melting point is on record?
Answer: 102 °C

Question: With `CC(NC(=O)c1c[nH]c2ncc(-c3nn(CC(O)CO)c4cc(Cl)ccc34)nc12)C(=O)N1CC(C#N)C1` (centres undefined) as the molecule, how does the melting point read?
Answer: 165 to 180 °C

Question: With `CCc1nc(-c2cccc(C#N)c2)c(-c2ccnc(N)c2)s1` as the molecule, how does the melting point read?
Answer: 178 to 179 °C

Question: For `CNc1nc(-c2cccc(NC(=S)c3ccc(C)cc3)c2)c2cc(OC)c(OC)cc2n1`, which melting point is on record?
Answer: 209 to 211 °C

Question: Which melting point does the source give for `O=Cc1ccc(OCc2ccccc2)c([N+](=O)[O-])c1` here?
Answer: 100 to 102 °C

Question: For `CCOc1nc(-c2ccco2)c2ncn(Cc3ccc(OC)cc3)c2n1`, which melting point is on record?
Answer: 137 to 138 °C

Question: Which melting point does the source give for `C(=Cc1ccccc1)CN1CCN(C(c2ccccc2)c2ccccc2)CC1` here?
Answer: 110 °C

Question: Which melting point does the source give for `CCOC(=O)C(C)(C)Oc1ccc(CCCC(=O)NN(Cc2cccc(OC)c2)C(N)=O)cc1` here?
Answer: 91.9 to 93.4 °C

Question: Which melting point does the source give for `COc1ccc(-c2ccccc2-c2c(Cl)nc3ncnn3c2Cl)c(Cl)c1` here?
Answer: 163 °C

Question: With `CC=CC(C)=C1C(=O)OC(=O)C1c1cc(C)n(-c2ccccc2)c1C` (centres undefined) as the molecule, how does the melting point read?
Answer: 172 °C

Question: Which melting point does the source give for `CNC(=O)C(C)Oc1ncn(-c2ccc(C(F)(F)F)cc2)n1` (centres undefined) here?
Answer: 157 to 158 °C

Question: With `Cc1c(CO)ncnc1N1CCOCC1` as the molecule, how does the melting point read?
Answer: 66 to 68 °C

Question: With `C(=Cc1ccc2ccccc2c1)c1ccccc1` as the molecule, how does the melting point read?
Answer: 143 to 145 °C

Question: With `Cc1cc([N+](=O)[O-])ccc1-c1ccc(-c2ccc([N+](=O)[O-])cc2C)o1` as the molecule, how does the melting point read?
Answer: 242 to 243 °C

Question: Which melting point does the source give for `Cc1ccc(S(=O)(=O)N[C@@H]2COC(C)(C)OC[C@H]2OS(=O)(=O)c2ccc(C)cc2)cc1` (relative stereo) here?
Answer: 200 to 202 °C

Question: For `NC(=O)/C=C1/c2cc(F)cc(F)c2CC1O` (centres undefined), which melting point is on record?
Answer: 235 to 237 °C

Question: For `CC(C)(C)OC(=O)COc1ccc(NC(=O)NC(=O)c2ccc(C(N)=S)cc2)cc1`, which melting point is on record?
Answer: 248 °C
